From patent US20140296146A1, “Thermostable Inhibitors of Activation of the Blood Clotting System Through Contact with Foreign Surfaces” (Synapse B.V., priority 2011, published 2014)
Read-outs that look alike come from different tables or passages of the source. Where a SMILES comes first, the peptide text is derived from it. Bridges are numbered along the chain shown (N, C = ends).

Key:
h-FXIIa [1] = target: T1, h-FXIIa (Homo sapiens, UniProt P00748); test: Effect of inhibitors on hydrolysis of S2302 by h-FXIIa; type: biochemical
T1 construct: purchased Enzyme Research Laboratories FXIIa 1212A
T1 sequence (P00748 373-615 limits assumed): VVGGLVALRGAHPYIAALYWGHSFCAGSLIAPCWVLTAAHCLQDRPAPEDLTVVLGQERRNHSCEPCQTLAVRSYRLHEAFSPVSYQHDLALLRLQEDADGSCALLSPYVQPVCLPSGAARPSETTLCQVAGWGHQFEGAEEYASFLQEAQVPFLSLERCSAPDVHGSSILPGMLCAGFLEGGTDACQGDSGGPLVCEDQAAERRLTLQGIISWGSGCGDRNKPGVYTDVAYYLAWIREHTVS
T1 sequence (P00748 20-372 partner limits assumed): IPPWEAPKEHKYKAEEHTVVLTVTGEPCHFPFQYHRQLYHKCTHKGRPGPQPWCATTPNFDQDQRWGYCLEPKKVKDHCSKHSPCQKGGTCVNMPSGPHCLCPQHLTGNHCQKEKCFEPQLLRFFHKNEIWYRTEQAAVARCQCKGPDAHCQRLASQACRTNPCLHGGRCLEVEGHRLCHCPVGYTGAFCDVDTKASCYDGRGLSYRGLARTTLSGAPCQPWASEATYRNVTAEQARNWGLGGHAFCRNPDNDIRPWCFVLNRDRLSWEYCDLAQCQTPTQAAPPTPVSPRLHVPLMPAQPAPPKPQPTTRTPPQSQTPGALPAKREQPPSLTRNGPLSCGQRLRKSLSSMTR
Method: (§1) Materials • S2302 From Chromogenic, lot # N0398718 SEQ0860, exp. date 2012-07. Water added on 7 Oct. […] On 3 Aug. […] Product code FXIIa 1212A, lot #FXIIa 2520PL. Bottle with 0.5 mg was reconstituted with 370 μl pure water. […] Buffer 4 mM NaAc, 150 mM NaCl (pH 5.3). Preparation was divided into 20 μl amounts and frozen at −80° C. • Hepes735 140 mM NaCl, 20 mM Hepes, 0.02% NaN3 (pH 7.35). • BSA5 Hepes735+5 mg/ml BSA. • CTI Prepared on 17 Dec. 2004, 0.141 mg/ml, i.e. 0.141/12028=11.7*10^−6 M (11.7 μM). One portion was thawed and divided into 3 parts. Part 1 was frozen at −80° C.; part 2 was kept at RT; and part 3 was incubated 30 min at 95° C. and then kept at RT.
(§2) Stock FXIIa was diluted 700× in BSA5. The inhibitor was diluted in BSA5 as indicated. Wells contained 70 μl diluted FXIIa (5 nM final), 70 μl inhibitor and 20 μl S2302 (475 or 462.5 μM final). The reaction was started after 5 min heating on the heating plate with S2302. Filters 405 nm and 490 nm reference. Found mΔA/min was multiplied by 2.14 to get the figure for a 1 cm path.
The residual activity (V) was fitted against the PTI concentration with equation:
(§3) V=(E+(sqrt(Ê2+2*E*(Ki−I)+Î2+2*I*Ki+Kî2)−E−I−Ki)/2)*kcat*S/(Km+S)
(§4) in which E=[FXIIa], Ki is the dissociation constant, I=[Inhibitor], kcat and Km are Michaelis constants and S=[S2302].

h-FXIIa [2] = target: T1, h-FXIIa; test: Stability of CTI, PTI and TICA at RT and at 95° C., read as inhibition of h-FXIIa; type: physicochemical
Method: as §1, with “Part 1 was frozen at −80° C.; part 2 was kept at RT; and part 3 was incubated 30 min at 95° C. and then kept at RT.” left out
as §2, with “ΔmA/min” for “mΔA/min”
The residual activity (V) was fitted against the inhibitor concentration with equation:
as §3, §4
To calculate the concentration of I the equation I=x·(x−E−Ki)/(x−E) was used. In this equation is I the calculated inhibitor concentration, x=the residual activity of FXIIa (free FXIIa), E the total FXIIa concentration (=9.33 nM), and Ki the dissociation or inhibitor constant.

[3] = Ki, Table 2, inhibitory activity of different polypeptides
[4] = ki F.XIIa (ng/ml), Before heating

Compound | Ki (h-FXIIa [1]) | Ki (h-FXIIa [1]; [3]) | Ki (h-FXIIa [1]; [4]) | Res. Act. (%) (h-FXIIa [2]; inhibitor 30 min 95° C.) | Res. Act. (%) (h-FXIIa [2]; inhibitor at RT during 72 hrs) | Res. Act. (%) (h-FXIIa [2]; inhibitor kept at −80° C.)
CC[C@H](C)[C@@H]1NC(=O)[C@H](CCCNC(=N)N)NC(=O)[C@@H]2CCCN2C(=O)[C@@H](NC(=O)[C@@H](NC(=O)[C@H](CCCNC(=N)N)NC(=O)[C@H](C)NC(=O)[C@H](C)NC(=O)[C@H](C)N)C(C)C)CSSC[C@@H]2NC(=O)[C@H](CCC(=O)O)NC(=O)[C@H](C)NC(=O)[C@H](CC(C)C)NC(=O)[C@@H]3CSSC[C@@H](C(=O)NCC(=O)O)NC(=O)[C@H](Cc4ccc(O)cc4)NC(=O)CNC(=O)[C@H](Cc4c[nH]cn4)NC(=O)[C@H](CCC(=O)O)NC(=O)[C@H](CC(C)C)NC(=O)[C@H](CSSC[C@H](NC(=O)[C@H](CCCCN)NC(=O)[C@H](CCSC)NC(=O)[C@H](CC(C)C)NC1=O)C(=O)N[C@@H](CCCCN)C(=O)N[C@@H](CCCCN)C(=O)N[C@@H](CC(=O)O)C(=O)N[C@@H](CO)C(=O)N[C@@H](CC(=O)O)C(=O)N3)NC(=O)[C@H](C(C)C)NC2=O [AAA-TICA1] (H-AAARVCPRILMKCKKDSDCLAECVCLEHGYCG-OH; disulfide 6-23, 13-25, 19-31) | 104 nM |  |  |  |  | 
CC[C@H](C)[C@@H]1NC(=O)[C@@H]2CSSC[C@H](NC(=O)[C@@H](NC(=O)[C@H](CCCNC(=N)N)NC(=O)[C@H](CCC(=O)O)NC(=O)[C@H](CCC(=O)O)NC(=O)[C@@H](N)Cc3c[nH]cn3)C(C)C)C(=O)N3CCC[C@H]3C(=O)N[C@@H](CCCCN)C(=O)N[C@@H]([C@@H](C)CC)C(=O)N[C@@H](CC(C)C)C(=O)N[C@@H](CCSC)C(=O)N[C@@H](CCC(=O)O)C(=O)N[C@H]3CSSC[C@H](NC1=O)C(=O)N[C@@H](CC(C)C)C(=O)N[C@@H](CCC(=O)O)C(=O)N[C@@H](Cc1c[nH]cn1)C(=O)NCC(=O)N[C@@H](Cc1ccc(O)cc1)C(=O)N[C@H](C(=O)NCC(=O)O)CSSC[C@H](NC(=O)[C@H](CC(=O)O)NC(=O)[C@H](CO)NC(=O)[C@H](CC(=O)O)NC(=O)[C@H](CCCCN)NC(=O)[C@H](CCCCN)NC3=O)C(=O)N[C@@H](CC(C)C)C(=O)N[C@@H](C)C(=O)N[C@@H](CCC(=O)O)C(=O)N2 [TICA5] (H-HEERVCPKILMECKKDSDCLAECICLEHGYCG-OH; disulfide 6-23, 13-25, 19-31 (inferred); N-terminus and C-terminus assumed) |  | 171000 nM | 152000 nM | 105% | 96% | 100%
CC[C@H](C)[C@@H]1NC(=O)[C@H](CCCNC(=N)N)NC(=O)[C@@H]2CCCN2C(=O)[C@@H](NC(=O)[C@@H](NC(=O)[C@@H](N)CCCNC(=N)N)C(C)C)CSSC[C@@H]2NC(=O)[C@H](CCC(=O)O)NC(=O)[C@H](C)NC(=O)[C@H](CC(C)C)NC(=O)[C@@H]3CSSC[C@@H](C(=O)NCC(=O)N[C@@H](C)C(=O)N[C@@H](C)C(=O)N[C@@H](C)C(=O)O)NC(=O)[C@H](Cc4ccc(O)cc4)NC(=O)CNC(=O)[C@H](Cc4c[nH]cn4)NC(=O)[C@H](CCC(=O)O)NC(=O)[C@H](CC(C)C)NC(=O)[C@H](CSSC[C@H](NC(=O)[C@H](CCCCN)NC(=O)[C@H](CCSC)NC(=O)[C@H](CC(C)C)NC1=O)C(=O)N[C@@H](CCCCN)C(=O)N[C@@H](CCCCN)C(=O)N[C@@H](CC(=O)O)C(=O)N[C@@H](CO)C(=O)N[C@@H](CC(=O)O)C(=O)N3)NC(=O)[C@H](C(C)C)NC2=O [TICA1-AAA] (H-RVCPRILMKCKKDSDCLAECVCLEHGYCGAAA-OH; disulfide 3-20, 10-22, 16-28) | 377 nM |  |  |  |  | 
CC[C@H](C)[C@@H]1NC(=O)[C@H](CCCNC(=N)N)NC(=O)[C@@H]2CCCN2C(=O)[C@@H](NC(=O)[C@@H](NC(=O)[C@H](CCCNC(=N)N)NC(=O)[C@H](CCC(=O)O)NC(=O)[C@H](CCC(=O)O)NC(=O)[C@@H](N)Cc2c[nH]cn2)C(C)C)CSSC[C@@H]2NC(=O)[C@H](CCC(=O)O)NC(=O)[C@H](C)NC(=O)[C@H](CC(C)C)NC(=O)[C@@H]3CSSC[C@@H](C(=O)NCC(=O)O)NC(=O)[C@H](Cc4ccc(O)cc4)NC(=O)CNC(=O)[C@H](Cc4c[nH]cn4)NC(=O)[C@H](CCC(=O)O)NC(=O)[C@H](CC(C)C)NC(=O)[C@H](CSSC[C@H](NC(=O)[C@H](CCCCN)NC(=O)[C@H](CCSC)NC(=O)[C@H](CC(C)C)NC1=O)C(=O)N[C@@H](CCCCN)C(=O)N[C@@H](CCCCN)C(=O)N[C@@H](CC(=O)O)C(=O)N[C@@H](CO)C(=O)N[C@@H](CC(=O)O)C(=O)N3)NC(=O)[C@H](C(C)C)NC2=O [TICA3] (H-HEERVCPRILMKCKKDSDCLAECVCLEHGYCG-OH; disulfide 6-23, 13-25, 19-31 (inferred); N-terminus and C-terminus assumed) |  | 3090 nM | 2760 nM | 103% | 101% | 100%
